Measurements taken from patent publication US20060040945A1, “Annellated pyrrole compounds as proton pump inhibitors for treating ulcer” (MERCKLE GMBH, priority 2002, published 2006).
Where two headings read alike, the source gives them in different places. Blank lines part the entries; values can stand above or below the compound they belong to.

Columns and labels:
[1] = tested on: rabbit gastric parietal cells; test: [14C]-aminopyrine (acid) accumulation in isolated gastric parietal cells; format: cell-based; settings: for effect on acid accumulation by isolated rabbit parietal cells: up to concentrations of 10^−4 M; for IC50: Oryctolagus cuniculus
Procedure: Strategy. Gastric parietal cells were isolated from New Zealand White Rabbits by pronase/collagenase digestion of fundic mucosa followed by enrichment of cells on discontinuous Nycodenz gradients in a manner known per se. Aminopyrine accumulation into parietal cells was assessed in 96 well filter plates with Durapore membranes. […] All determinations were performed in quadruplicate. Basal aminopyrine accumulation was determined as aminopyrine accumulation into […] (a reflection of non-specific isotope trapping).

gastric H,K-ATPase [2] = target: T1, gastric H,K-ATPase (Sus scrofa, UniProt P19156); test: K+-stimulated, SCH28080-sensitive H,K-ATPase activity of pig gastric microsomes (32Pi release from ATP); format: biochemical; settings: concentrations up to 10^−3 M
T1 construct: Reaction mixtures for assay of K^+-stimulated ATPase activity in pig gastric microsomal membranes contained 5 μg membrane protein; from tissue; host or cells: pig gastric fundic mucosa, G1 microsomal fraction

gastric H,K-ATPase [3] = settings: cited from earlier work; for IC50: literature (refs 6, 7), read-out: published IC50, H,K-ATPase
gastric H,K-ATPase [4] = target: T1, gastric H,K-ATPase; test: K+-stimulated, SCH28080-sensitive H,K-ATPase activity of pig gastric microsomes (32Pi release from ATP); format: biochemical; settings: for inhibitory effect on microsomal H,K-ATPase activity: concentrations up to 10^−4 M; for effect on H,K-ATPase activity: non-physiological concentrations greater than 10^−7 M; for inhibitory activity against H,K-ATPase: physiological concentrations (10^−9-10^−8 M); for IC50: pig gastric microsomes, pH 7.0, 20 minutes at 37° C., read-out: half-maximal inhibitory concentration (IC50), H,K-ATPase activity
Procedure: Strategy. Microsomal gastric H,K-ATPase was prepared from pig gastric mucosal homogenates by differential centrifugation. Briefly, pig stomachs obtained at a slaughter-house within 1 hour post mortem were washed with ice-cold 0,25 M sucrose and the fundus was dissected from the cardiac and antral regions. All subsequent prodedures were at 4° C. The mucosa was flooded with saturated NaCl, and the surface mucus and superficial cells wiped off with paper towels. The mucosa was scraped from the underlying connective tissue, suspended (10% w/v) in isolation buffer (0,25 M sucrose, 20 mM HEPES, pH 7,4, 1 mM EDTA, 1 mM phenylmethylsulfonyl fluoride), and disrupted by two 10 second bursts at maximum power in a Tissumizer (Tekmar, Cincinnati, Ohio). The homogenate was centrifuged at 20,000 g for 30 minutes, and the supernatant was centrifuged at 10^5 g for 1 hour. The resulting microsomal pellet was resuspended in isolation buffer, and applied to a discontinuous gradient of 7% w/v Ficoll and 34% sucrose (both in isolation buffer). After 3 hours at 32,500 rpm (Sorvall AH 629 rotor), the microsomal band (G1) recovered from the 7% Ficoll interface was resuspended to 10 mg/ml in 15 mM PIPES-Tris, pH 6,8, diluted 1:1 with cold 60% sucrose, lyophilized in 0,5 ml aliquots, and stored at −70° C. Gl microsomes were about 0,1 microns in diameter, were enriched in H.K.-ATPase activity, and more than 80% of their protein content banded at 94 kDa by SDS-PAGE. ATP hydrolytic activity of microsomes was quantitated in terms of inorganic phosphate release from substrate ATP and measured in graded concentrations (ranging from 10^−9M to 10^−4M) of ML 3000, and a wide range of other compounds. Reaction mixtures for assay of K^+-stimulated ATPase activity in pig gastric microsomal membranes contained 5 μg membrane protein, 100 mM Tris-acetate, pH 7.0, 1 mM MgCl2, 1 mM NaNa, 0,1 mM EGTA, 5 μM ATP (γ-^32P-ATP, 10 Ci/mmol, NEN, Boston, Mass.), 0-10 mM KCl, and 0-100 μM SCH 28080. After 20 minutes incubation at 37° C., reactions were stopped by addition of 10% w/v activated charcoal (Sigma), 5,5% w/v trichloroacetic acid, vortexed vigorously, and centrifuged at 14,000 g for 10 minutes at 4° C. Inorganic phosphate (γ-^32Pi) content of the supernatant was measured by scintillation counting. […] Graphs with standard error bars present inter-assay data variance in three independent assays in each of which ATPase activities in three separate but identical reaction conditions were measured. Graphs without standard error bars represent the mean ATPase activities in three separate but identical reaction conditions in one of at least three independent assays; typical data are shown in these cases.
The wide range of published PPI IC50 values for microsomal H,K-ATPase reflects the mechanistic necessity for compound acidification to allow formation of a thiol-reactive […] intermediate which then irreversibly derivatizes H,K-ATPase a subunit cysteine residues leading to enzyme inhibition. […] Microsomal vesicle preparations vary widely in their ion-tightness, which affects the extent to which internal pH can be lowered by H,K-ATPase turnover, and therefore the extent to which omeprazole diffusing into the vesicle can be acidified and activated. Alternatively, prior in vitro acidification of omeprazole ensures induction of its inhibitory properties, and is essential in assays carried out using ion-permeable microsomal H,K-ATPase preparations. For this reason, the omeprazole inhibitory data shown in FIG. 2 were derived using omeprazole acidified to pH 6.1 and incubated with the enzyme for 30 min at the same pH (8).
Given that PPIs are irreversible inhibitors of H,K-ATPase activity, covalently binding to the catalytic α-subunit, it was determined whether ML 3000 inhibition of H,K-ATPase was reversible or irreversible. […]

[5] = tested on: human gastric adenocarcinoma (AGS) cells; test: IL-8 secretion by AGS cells into culture medium (ELISA); format: cell-based; settings: 6 hr
[6] = Plasma ML3000 level after immediate release dosage forms; format: in vivo; settings: immediate release dosage form
[7] = AGS cells without IL-1β stimulation, read-out: IC50, baseline IL-8 secretion

T1 sequence (P19156 2-1034 limits assumed): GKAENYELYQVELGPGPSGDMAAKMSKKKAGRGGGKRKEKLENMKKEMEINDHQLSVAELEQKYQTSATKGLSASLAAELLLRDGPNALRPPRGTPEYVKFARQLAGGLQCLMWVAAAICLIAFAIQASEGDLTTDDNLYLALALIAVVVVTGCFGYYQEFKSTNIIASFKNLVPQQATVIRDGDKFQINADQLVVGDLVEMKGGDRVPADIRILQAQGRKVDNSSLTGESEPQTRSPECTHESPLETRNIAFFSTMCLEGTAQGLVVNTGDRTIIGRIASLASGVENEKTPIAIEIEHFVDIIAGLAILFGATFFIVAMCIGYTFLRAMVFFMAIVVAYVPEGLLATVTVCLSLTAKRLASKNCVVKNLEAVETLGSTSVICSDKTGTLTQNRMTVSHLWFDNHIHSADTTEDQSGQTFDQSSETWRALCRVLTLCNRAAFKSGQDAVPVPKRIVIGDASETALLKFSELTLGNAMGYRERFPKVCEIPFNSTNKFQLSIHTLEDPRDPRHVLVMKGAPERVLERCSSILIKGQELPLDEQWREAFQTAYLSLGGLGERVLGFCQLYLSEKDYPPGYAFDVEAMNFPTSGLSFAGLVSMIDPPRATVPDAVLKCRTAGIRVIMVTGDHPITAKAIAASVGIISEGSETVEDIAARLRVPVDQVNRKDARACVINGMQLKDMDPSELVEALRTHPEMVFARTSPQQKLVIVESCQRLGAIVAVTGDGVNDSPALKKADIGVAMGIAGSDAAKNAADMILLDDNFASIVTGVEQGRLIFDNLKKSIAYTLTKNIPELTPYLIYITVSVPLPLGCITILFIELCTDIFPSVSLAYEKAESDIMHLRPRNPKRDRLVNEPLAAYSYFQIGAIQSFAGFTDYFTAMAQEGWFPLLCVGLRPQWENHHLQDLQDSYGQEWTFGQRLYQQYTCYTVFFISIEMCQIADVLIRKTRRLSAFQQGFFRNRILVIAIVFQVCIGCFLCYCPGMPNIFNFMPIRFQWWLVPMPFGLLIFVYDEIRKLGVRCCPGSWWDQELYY
T1 sequence (P18434 whole entry partner): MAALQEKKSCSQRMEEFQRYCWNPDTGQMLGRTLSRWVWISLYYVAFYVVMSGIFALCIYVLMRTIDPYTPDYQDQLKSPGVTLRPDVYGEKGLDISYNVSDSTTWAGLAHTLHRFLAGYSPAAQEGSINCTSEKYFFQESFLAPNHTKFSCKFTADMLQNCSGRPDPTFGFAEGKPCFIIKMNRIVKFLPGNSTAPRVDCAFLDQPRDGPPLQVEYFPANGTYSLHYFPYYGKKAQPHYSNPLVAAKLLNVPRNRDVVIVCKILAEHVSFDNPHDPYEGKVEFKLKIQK

inhibitory effect on microsomal H,K-ATPase activity (gastric H,K-ATPase [2]): without inhibitory effects
Structure (SMILES): CC(=O)Oc1ccccc1C(=O)O [acetyl salicylic acid]
effect on acid accumulation by isolated rabbit parietal cells [1]: no effect

Structure (SMILES): Cc1c(OCC(F)(F)F)ccnc1C[S+]([O-])c1nc2ccccc2[nH]1 (centres unmarked) [lansoprazole]
IC50 (gastric H,K-ATPase [3]): 2.1 µM

inhibitory effect on microsomal H,K-ATPase activity (gastric H,K-ATPase [4]): without inhibitory effects
Structure (SMILES): COc1ccc2c(c1)c(CC(=O)O)c(C)n2C(=O)c1ccc(Cl)cc1 [indomethacin]
Ki (gastric H,K-ATPase [3]; previously reported (ref 10)): 670 µM

Structure (SMILES): COC(=O)c1cc2nc([S+]([O-])Cc3ncccc3C)[nH]c2cc1C (centres unmarked) [picoprazole]
IC50 (gastric H,K-ATPase [3]): 2 µM

inhibition at 10 µM (gastric H,K-ATPase [4]; at 10^−5 M): ~20%
IC50 [5, 7]: ~0.4 µM
Structure (SMILES): COC1(c2cc(F)cc(OCc3ccc4c(ccc(=O)n4C)c3)c2)CCOCC1 [ZD-2138]

inhibitory effect on microsomal H,K-ATPase activity (gastric H,K-ATPase [4]): without inhibitory effects
Structure (SMILES): COc1ccc2cc([C@H](C)C(=O)O)ccc2c1 [naproxen]

Structure (SMILES): CCCCC/C=C\C[C@@H](O)/C=C/C=C/C=C\[C@@H](O)CCCC(=O)O [LTB4, leukotriene B4]
effect on H,K-ATPase activity (gastric H,K-ATPase [4]): significant attentuation of H,K-ATPase activity
inhibitory activity against H,K-ATPase (gastric H,K-ATPase [4]): neither leukotriene showed any inhibitory activity

IC50 (gastric H,K-ATPase [4]): 30 µM
Structure (SMILES): CCCCC/C=C\C/C=C\C/C=C\C/C=C\CCCC(=O)O [Arachidonic acid]

Structure (SMILES): CCCCC/C=C\C\C=C/C=C/C=C/[C@@H](SC[C@H](N)C(=O)NCC(=O)O)[C@@H](O)CCCC(=O)O [LTD4, leukotriene D4]
effect on H,K-ATPase activity (gastric H,K-ATPase [4]): significant attentuation of H,K-ATPase activity
inhibitory activity against H,K-ATPase (gastric H,K-ATPase [4]): neither leukotriene showed any inhibitory activity

IC50 (gastric H,K-ATPase [4]): 45 µM
Structure (SMILES): CCCCC[C@H](O)/C=C/[C@H]1[C@H](O)CC(=O)[C@@H]1C/C=C\CCCC(=O)O [prostaglandin E2]

inhibitory effect on microsomal H,K-ATPase activity (gastric H,K-ATPase [4]): without inhibitory effects
Structure (SMILES): CS(=O)(=O)Nc1ccc([N+](=O)[O-])cc1OC1CCCCC1 [NS 398]
effect on acid accumulation by isolated rabbit parietal cells [1]: no effect

reversibility of H,K-ATPase inhibition on dilution (gastric H,K-ATPase [4]; diluted from 100 μM to 3.3 μM): restored H,K-ATPase activity
effect of acidification on H,K-ATPase inhibitory profile (gastric H,K-ATPase [4]; half-maximal inhibitory concentration titrated to different pHs): no significant effect
IC50 (gastric H,K-ATPase [4]): 15 µM
IC50 ([1]; 100 μM histamine, read-out: IC50, histamine-stimulated acid accumulation): 40 µM
IC50 ([1]; read-out: IC50, forskolin-stimulated acid accumulation): ~45 µM
plasma ML3000 concentration maintained for 8 hours ([6]; dose 2.5 mg/kg): above 100 ng/mL
plasma ML3000 concentration maintained for 8 hours ([6]; dose 5 mg/kg): > 200 ng/mL
IC50 [5, 7]: 0.75 µM
IC50 ([5]; AGS cells, IL-1β (20 ng/ml), read-out: IC50, IL-1β-stimulated IL-8 secretion): 30 µM
Structure (SMILES): CC1(C)Cc2c(-c3ccccc3)c(-c3ccc(Cl)cc3)c(CC(=O)O)n2C1 [ML 3000, [6-(4-chlorophenyl)-2,2-dimethyl-7-phenyl-2,3-dihydro-1H-pyrrolizine-5-yl]-acetic acid]
